{"source": "patent US11040052B2", "about": "“Methods and pharmaceutical compositions for modulating autophagy in a subject in need thereof” (INSERM (INSTITUT NATIONAL DE LA SANTE ET DE LA RECHERCHE …, priority 2013, dated 2021)", "key": {"[1]": {"test_system": "MCA205 tumor", "test": "Growth of transplantable tumors with chemotherapy", "format": "in vivo, mice", "conditions": "for tumor growth, combined with MTX: immunocompetent wild type mice, agent given before and with mitoxanthrone; for tumor growth, combined with MTX, immunodeficient mice: nu/nu (nude athymic) mice", "procedure": "(§1) C57BL/6 mice (Charles River Laboratory, Lentilly, France) were bred and maintained according to both the FELASA and the Animal Experimental Ethics Committee Guidelines (Val de Marne, France). Mice were housed in a temperature-controlled environment with 12 h light/dark cycles and received food and water ad libitum. For HC-related experiments, mice were injected intraperitoneally with a single 100 mg/kg dose and 6 h later were sacrificed and tissues were immediately frozen in liquid nitrogen. For DCA- and DMKG-related experiments, mice were subjected to 24 h starvation and injected intraperitoneally each 8 h with a 100 mg/kg of either DCA or DMKG solution prepared in PBS. After 24 h of starvation, mice were sacrificed and tissues were immediately frozen in liquid nitrogen after extraction and homogenized two cycles for 20 s at 5,500 rpm using Precellys 24 tissue homogenator (Bertin Technologies, Montigny-le-Bretonneux, France) in a 20 mM Tris buffer (pH 7.4) containing 150 mM NaCl, 1% Triton X-100, 10 mM EDTA and Complete® protease inhibitor cocktail (Roche Applied Science). Tissue extracts were then centrifuged at 12,000 g at 4° C. and supernatants were collected. Protein concentration in the supernatants was evaluated by the bicinchoninic acid technique (BCA protein assay kit, Pierce Biotechnology, Rockford, Ill.). For hydroxycitrate-related weight-loss experiments, autophagy-deficient Atg4b^−/− mice were used. Atg4b^−/− mice have been previously described (Mariño et al., 2010). For HC-, spermidine-, and resveratrol-related experiments (tumour growth) mice were intraperitoneally injected with respectively 100 mg/kg, 50 mg/kg and 100 mg/kg doses at day 8 and day 9. At day 9, mice were intraperitoneally injected with 2 mg/kg single dose of Mitoxanthrone. For starvation related experiment (tumour growth) mice were treated as previously described (Fabrizio et. al., 2010).\nSix weeks old female C57BL/6, Balb/c and nude athymic mice (Harlan Laboratory, Gannat, France) were bred and maintained according to both the FELASA and the Animal Experimental Inserm Ethics Committee Guidelines (project: 2012-69). Mice were housed in a temperature-controlled environment with 12 h light/dark cycles and received food and water ad libitum. For tumor growth experiments, procedures adopted are described as follows: 3×10^5 tumor cells were subcutaneously inoculated; when tumors became palpable (day −1 before chemotherapy), mice were first intraperitoneally injected with 100 mg/kg Potassium Hydroxycitrate, 10 mg/kg Acetylsalicylic Acid, 30 mg/kg SB204990, 30 mg/kg c646, 5 mg/kg Rapamycin, 25 mg/kg Resveratrol, 50 mg/kg Spermidine. At day 0, mice were intraperitoneally injected with the abovementioned compounds and with 5.17 mg/Kg Mitoxanthrone or 5 mg/kg Oxaliplatin. Tumor size was measured every two days. For starvation experiments, mice underwent 48 hour fasting followed by intreperitoneal injection of chemotherapeutics. For autophagy induction study, 6 hours after CRMs administration, mice were sacrificed and tissues were snap-frozen in liquid nitrogen after extraction and homogenized two cycles for 20 s at 5,500 rpm using Precellys 24 tissue homogenator (Bertin Technologies, Montigny-le-Bretonneux, France) in a 20 mM Tris buffer (pH 7.4) containing 150 mM NaCl, 1% Triton X-100, 10 mM EDTA and Complete® protease inhibitor cocktail (Roche Applied Science, Penzberg, Germany). Tissue extracts were then centrifuged at 12,000 g at 4° C. and supernatants were collected. Protein concentration in the supernatants was evaluated by the bicinchoninic acid technique (BCA protein assay kit, Pierce Biotechnology, Rockford, US."}, "[2]": {"test_system": "autophagy in mice tissues", "test": "Autophagy induction in tissues of fed mice (LC3 lipidation, p62, GFP-LC3 dots)", "format": "in vivo", "procedure": "as §1\nTo avoid post-mortem autophagy induction, dead mice were immediately perfused with 4% paraformaldehyde (w:v in PBS, pH 7.4). Tissues were then harvested and further fixed with the same solution for at least 4 h, followed by treatment with 15% sucrose (w:v in PBS) for 4 h and with 30% sucrose (w:v in PBS) overnight. Tissue samples were embedded in Tissue-Tek OCT compound (Sakura Finetechnical Co. Ltd., Tokyo, Japan) and stored at −70° C. Five μm-thick tissue sections were prepared with a CM3050 S cryostat (Leica Microsystems GmbH, Wetzlar, Germany), air-dried for 1 h, washed in PBS for 5 min, dried at RT for 30 min, and mounted with VECTASHIELD anti-fading medium. In each organ, the number of GFP-LC3 dots was counted in five independent visual fields from at least five mice using a TCS SP2 confocal fluorescence microscope (Leica Microsystems GmbH).\nSix weeks old female C57BL/6, Balb/c and nude athymic mice (Harlan Laboratory, Gannat, France) were bred and maintained according to both the FELASA and the Animal Experimental Inserm Ethics Committee Guidelines (project: 2012-69). Mice were housed in a temperature-controlled environment with 12 h light/dark cycles and received food and water ad libitum. For tumor growth experiments, procedures adopted are described as follows: 3×10^5 tumor cells were subcutaneously inoculated; when tumors became palpable (day −1 before chemotherapy), mice were first intraperitoneally injected with 100 mg/kg Potassium Hydroxycitrate, 10 mg/kg Acetylsalicylic Acid, 30 mg/kg SB204990, 30 mg/kg c646, 5 mg/kg Rapamycin, 25 mg/kg Resveratrol, 50 mg/kg Spermidine. At day 0, mice were intraperitoneally injected with the abovementioned compounds and with 5.17 mg/Kg Mitoxanthrone or 5 mg/kg Oxaliplatin. Tumor size was measured every two days. For starvation experiments, mice underwent 48 hour fasting followed by intreperitoneal injection of chemotherapeutics. […]"}, "[3]": {"conditions": "chronic treatment; cited from earlier work"}, "[4]": {"test_system": "intracellular amino acid levels", "test": "Intracellular amino acid levels by mass spectrometry", "format": "cell-based", "conditions": "starved cells", "procedure": "Profiling of intracellular metabolites was performed on a RRLC 1260 system (Agilent Technologies) coupled to a QTOF 6520 (Agilent) equipped with an electrospray source operating in positive ion and full scan mode from 100 to 1000 Da. The gas temperature was set at 350° C. with a gas flow of 10 L·min^1. The capillary voltage was set at 4.0 kV, and the fragmentor at 150 V. Two reference masses were used to maintain the mass accuracy during analysis: 121.050873 (C5H4N4) and 922.009798 (C18H18O6N3P3F24). Five μL of sample were injected on a 150 mm×2.1 mm 3.5 μm SB Aq column (Agilent) with a pre-column 30 mm×2.1 mm 3.5 μm Eclipse plus (Agilent). The gradient mobile phase consisted of water with 10 mmol/L of ammonium acetate and 0.01% of acetic acid (A) and acetonitrile (B). Initial composition of mobile phase was 2% of B, followed by an increase to 95% of B in 10 min. The flow rate was set to 0.3 mL·min^−1."}, "[5]": {"test_system": "U2OS cells stably expressing GFP-LC3", "test": "Microinjection of AcCoA or CoA into the cytoplasm", "format": "cell-based, human", "conditions": "10 mM injected; for Hydroxycitrate-induced autophagy after microinjection: HC-treated cells", "procedure": "For microinjection, U2Os cells were cultured overnight on glass coverslips before injection. The setup for the injection itself was as follows: 10 mM CoA or AcCoA were injected in PBS for 0.2 s under a pressure of 150 hPa, using a Microinjector equipment (Eppendorf, Hamburg, Germany). Then cells were culture for 3 h in the presence of 100 nM bafilomycin A1 (BafA1) and fixed for fluorescence microscopy, as described below.\nFor microinjection, U2OS cells were cultured overnight on culture dishes before injection. The setup for the injection itself was as follows: 10 mM CoA or AcCoA in PBS were injected for 0.2 s under an injection pressure of 150 hPa and a compensatory pressure of 9 hPa, using a microinjector (Eppendorf, Hamburg, Germany). Before injection, cells were cultured for 2 h in the presence of 100 nM bafilomycin A1 (BafA1) in control medium and in presence of 20 mm Hydroxycitrate. One hour after injection, cells were fixed with 4% PFA and analyzed by fluorescent and automated videomicroscopy."}, "[6]": {"test_system": "MPA/DMBA induced mammary tumors", "test": "MPA/DMBA induced mammary tumor", "format": "in vivo, mice", "conditions": "mouse, in vivo", "procedure": "Six-week-old female Balb/c mice underwent surgical implantation of slow-release MPA (Medroxyprogesterone Acetate) pellets (50 mg, 90-day release; Innovative Research of America) subcutaneously on the right flank. 200 uL of 5 mg/mL DMBA (Dimethylbenzantracene)\n(Sigma Aldrich) dissolved in Corn Oil was administered by oral gavage six times during 8 weeks. Tumor formation was monitored by palpation. When tumors became palpable, mice were assigned to following groups of treatment: PBS, HCA, MTX, MTX plus HCA and the MTX plus HCA upon CD4/CD8 lymphocytes depletion. Combinatorial groups were treated as previously described, whereas for CD4/CD8 depletion, mice were intraperitoneally administrated with 500 μg of anti CD4 and CD8 antibodies the day before the onset of the treatment."}, "[7]": {"test_system": "cellular ATP levels", "test": "Cellular ATP levels", "format": "cell-based", "conditions": "starved cells"}}, "note": "Entries after “also recorded” stand apart in the source; their conditions may differ.", "data": [{"compound": "NCCCCNCCCN", "note": "[spermidine]", "values": [{"measurement": "tumor growth, combined with MTX", "setting": "[1]", "value": "capable to recapitulate the positive combinatorial effect of starvation; also recorded: HC could be replaced"}, {"measurement": "tumor growth, combined with MTX", "setting": "[1]; listed as Spermidine", "value": "mimics the effects of 48 h fasting in delaying subcutaneous MCA205 tumor growth; also recorded: can enhance chemotherapy efficacy"}, {"measurement": "tumor growth, combined with MTX, immunodeficient mice", "setting": "[1]", "value": "failed"}, {"measurement": "autophagy in vivo (LC3 lipidation, p62, GFP-LC3)", "setting": "[2]", "value": "elicits autophagy in mice muscle after 6 hours"}, {"measurement": "health and life spans of mice", "setting": "[3]", "value": "extends the health and life spans of mice"}]}, {"compound": "NC(=O)CC[C@H](N)C(=O)O", "note": "[glutamine]", "values": [{"measurement": "intracellular amino acid levels", "setting": "[4]", "value": "did increase cellular glutamate levels"}]}, {"compound": "Oc1ccc(C=Cc2cc(O)cc(O)c2)cc1", "note": "[resveratrol]", "values": [{"measurement": "tumor growth, combined with MTX", "setting": "[1]", "value": "capable to recapitulate the positive combinatorial effect of starvation; also recorded: HC could be replaced"}, {"measurement": "tumor growth, combined with MTX", "setting": "[1]; listed as Resveratrol", "value": "mimics the effects of 48 h fasting in delaying subcutaneous MCA205 tumor growth"}, {"measurement": "tumor growth, combined with MTX, immunodeficient mice", "setting": "[1]", "value": "failed"}, {"measurement": "autophagy in vivo (LC3 lipidation, p62, GFP-LC3)", "setting": "[2]", "value": "elicits autophagy in mice muscle after 6 hours"}]}, {"compound": "CC(=O)SCCNC(=O)CCNC(=O)[C@H](O)C(C)(C)COP(=O)(O)OP(=O)(O)OC[C@H]1O[C@@H](n2cnc3c(N)ncnc32)[C@H](O)[C@@H]1OP(=O)(O)O", "note": "[AcCoA, acetyl-coenzyme A]", "values": [{"measurement": "Hydroxycitrate-induced autophagy after microinjection", "setting": "[5]", "value": "suppressed by microinjection of AcCoA"}, {"measurement": "Hydroxycitrate-induced autophagy after microinjection", "setting": "[5]; listed as Acetyl CoA", "value": "inhibits Hydroxycitrate-induced autophagy"}, {"measurement": "cytoplasmic protein acetylation after microinjection", "setting": "[5]; starved cells", "value": "increased the levels of cytoplasmic protein acetylation"}, {"measurement": "starvation-induced autophagic flux after microinjection", "setting": "[5]; starved cells", "value": "reduced starvation-induced autophagic flux"}]}, {"compound": "O=C1c2c(O)ccc(O)c2C(=O)c2c(NCCNCCO)ccc(NCCNCCO)c21", "note": "[MTX, mitoxanthrone]", "values": [{"measurement": "mammary tumor growth, monotherapy", "setting": "[6]", "value": "had little effect"}]}, {"compound": "Cn1cnc(N)c2ncnc1-2", "note": "[3-MA, 3-methyladenine]", "values": [{"measurement": "cellular ATP levels in starved cells", "setting": "[7]", "value": "similarly reduced ATP content"}]}]}
